Test results as given in the NIST ThermoML archive (doi:10.1021/je400835u).
± gives the expanded uncertainty stated by the source.

Assay: xn = mol fraction of the nth substance listed
Conditions: 100 kPa, Liquid; for viscosity: Falling or rolling sphere viscometry; for mass density: Vibrating tube method

CCCCC1CCCCC1 [butylcyclohexane] + CCCCCCCCCCCC
Conditions | mass density, 293.15 K [kg/m3] | mass density, 298.15 K [kg/m3] | mass density, 303.15 K [kg/m3] | mass density, 308.15 K [kg/m3] | mass density, 313.15 K [kg/m3] | viscosity, 293.15 K [mPa·s] | viscosity, 298.15 K [mPa·s] | viscosity, 303.15 K [mPa·s] | viscosity, 308.15 K [mPa·s] | viscosity, 313.15 K [mPa·s]
x1 = 0.0511 | 750.97 ± 0.16 | 747.36 ± 0.16 | 743.73 ± 0.16 | 740.1 ± 0.16 | 736.45 ± 0.16 | 1.492 ± 0.015 | 1.369 ± 0.014 | 1.258 ± 0.013 | 1.157 ± 0.013 | 1.07 ± 0.013
x1 = 0.0989 | 752.88 ± 0.16 | 749.26 ± 0.16 | 745.63 ± 0.16 | 741.99 ± 0.16 | 738.34 ± 0.16 | 1.486 ± 0.015 | 1.363 ± 0.014 | 1.251 ± 0.013 | 1.152 ± 0.013 | 1.067 ± 0.013
x1 = 0.2004 | 757.06 ± 0.15 | 753.44 ± 0.16 | 749.8 ± 0.16 | 746.15 ± 0.16 | 742.5 ± 0.16 | 1.467 ± 0.015 | 1.346 ± 0.014 | 1.238 ± 0.013 | 1.14 ± 0.013 | 1.056 ± 0.013
x1 = 0.3002 | 761.38 ± 0.15 | 757.75 ± 0.16 | 754.1 ± 0.16 | 750.45 ± 0.16 | 746.78 ± 0.16 | 1.45 ± 0.014 | 1.331 ± 0.014 | 1.224 ± 0.013 | 1.128 ± 0.013 | 1.047 ± 0.013
x1 = 0.4012 | 765.97 ± 0.15 | 762.34 ± 0.15 | 758.68 ± 0.16 | 755.02 ± 0.16 | 751.35 ± 0.16 | 1.431 ± 0.014 | 1.314 ± 0.014 | 1.21 ± 0.013 | 1.117 ± 0.013 | 1.036 ± 0.012
x1 = 0.5005 | 770.74 ± 0.15 | 767.1 ± 0.15 | 763.43 ± 0.15 | 759.76 ± 0.16 | 756.07 ± 0.16 | 1.415 ± 0.014 | 1.298 ± 0.014 | 1.196 ± 0.013 | 1.106 ± 0.013 | 1.026 ± 0.012
x1 = 0.6006 | 775.82 ± 0.15 | 772.16 ± 0.15 | 768.48 ± 0.15 | 764.8 ± 0.16 | 761.1 ± 0.16 | 1.393 ± 0.014 | 1.279 ± 0.014 | 1.18 ± 0.013 | 1.091 ± 0.013 | 1.013 ± 0.012
x1 = 0.7008 | 781.21 ± 0.15 | 777.53 ± 0.15 | 773.83 ± 0.15 | 770.13 ± 0.15 | 766.43 ± 0.16 | 1.373 ± 0.014 | 1.262 ± 0.014 | 1.165 ± 0.013 | 1.078 ± 0.013 | 1.002 ± 0.012
x1 = 0.7998 | 786.85 ± 0.15 | 783.16 ± 0.15 | 779.45 ± 0.15 | 775.73 ± 0.15 | 771.99 ± 0.16 | 1.351 ± 0.014 | 1.244 ± 0.013 | 1.15 ± 0.013 | 1.064 ± 0.013 | 0.99 ± 0.012
x1 = 0.8996 | 792.92 ± 0.15 | 789.21 ± 0.15 | 785.47 ± 0.15 | 781.73 ± 0.15 | 777.98 ± 0.15 | 1.331 ± 0.014 | 1.226 ± 0.013 | 1.134 ± 0.013 | 1.049 ± 0.013 | 0.978 ± 0.012
x1 = 0.9494 | 796.1 ± 0.15 | 792.38 ± 0.15 | 788.64 ± 0.15 | 784.9 ± 0.15 | 781.13 ± 0.15 | 1.32 ± 0.014 | 1.216 ± 0.013 | 1.126 ± 0.013 | 1.04 ± 0.013 | 0.969 ± 0.012
x1 = 1 | 799.44 ± 0.15 | 795.7 ± 0.15 | 791.95 ± 0.15 | 788.19 ± 0.15 | 784.41 ± 0.15 | 1.296 ± 0.014 | 1.196 ± 0.013 | 1.107 ± 0.013 | 1.027 ± 0.013 | 0.958 ± 0.012

CCCCC1CCCCC1 [butylcyclohexane] + CCCCCCCCCCCCCC
Conditions | mass density, 293.15 K [kg/m3] | mass density, 298.15 K [kg/m3] | mass density, 303.15 K [kg/m3] | mass density, 308.15 K [kg/m3] | mass density, 313.15 K [kg/m3] | viscosity, 293.15 K [mPa·s] | viscosity, 298.15 K [mPa·s] | viscosity, 303.15 K [mPa·s] | viscosity, 308.15 K [mPa·s] | viscosity, 313.15 K [mPa·s]
x1 = 0.0516 | 764.33 ± 0.15 | 760.8 ± 0.15 | 757.26 ± 0.15 | 753.73 ± 0.16 | 750.2 ± 0.16 | 2.28 ± 0.019 | 2.052 ± 0.018 | 1.86 ± 0.017 | 1.694 ± 0.016 | 1.553 ± 0.015
x1 = 0.1 | 765.53 ± 0.15 | 762 ± 0.15 | 758.46 ± 0.15 | 754.92 ± 0.15 | 751.38 ± 0.16 | 2.234 ± 0.019 | 2.011 ± 0.018 | 1.823 ± 0.016 | 1.662 ± 0.016 | 1.523 ± 0.015
x1 = 0.2001 | 768.14 ± 0.15 | 764.6 ± 0.15 | 761.06 ± 0.15 | 757.51 ± 0.15 | 753.96 ± 0.16 | 2.135 ± 0.018 | 1.924 ± 0.017 | 1.746 ± 0.016 | 1.593 ± 0.015 | 1.463 ± 0.014
x1 = 0.2988 | 770.93 ± 0.15 | 767.38 ± 0.15 | 763.83 ± 0.15 | 760.27 ± 0.15 | 756.69 ± 0.16 | 2.037 ± 0.018 | 1.838 ± 0.017 | 1.67 ± 0.016 | 1.526 ± 0.015 | 1.401 ± 0.014
x1 = 0.4001 | 774.02 ± 0.15 | 770.46 ± 0.15 | 766.89 ± 0.15 | 763.31 ± 0.15 | 759.72 ± 0.16 | 1.934 ± 0.017 | 1.749 ± 0.016 | 1.592 ± 0.015 | 1.457 ± 0.014 | 1.341 ± 0.014
x1 = 0.498 | 777.26 ± 0.15 | 773.68 ± 0.15 | 770.08 ± 0.15 | 766.49 ± 0.15 | 762.88 ± 0.15 | 1.834 ± 0.017 | 1.662 ± 0.016 | 1.517 ± 0.015 | 1.391 ± 0.014 | 1.282 ± 0.014
x1 = 0.6006 | 780.95 ± 0.15 | 777.36 ± 0.15 | 773.74 ± 0.15 | 770.12 ± 0.15 | 766.49 ± 0.15 | 1.728 ± 0.016 | 1.571 ± 0.015 | 1.436 ± 0.014 | 1.32 ± 0.014 | 1.218 ± 0.013
x1 = 0.7005 | 784.9 ± 0.15 | 781.27 ± 0.15 | 777.63 ± 0.15 | 773.98 ± 0.15 | 770.33 ± 0.15 | 1.625 ± 0.015 | 1.481 ± 0.015 | 1.358 ± 0.014 | 1.25 ± 0.013 | 1.155 ± 0.013
x1 = 0.7999 | 789.23 ± 0.15 | 785.57 ± 0.15 | 781.9 ± 0.15 | 778.21 ± 0.15 | 774.53 ± 0.15 | 1.521 ± 0.015 | 1.391 ± 0.014 | 1.279 ± 0.014 | 1.18 ± 0.013 | 1.092 ± 0.013
x1 = 0.9002 | 794.07 ± 0.15 | 790.38 ± 0.15 | 786.66 ± 0.15 | 782.94 ± 0.15 | 779.22 ± 0.15 | 1.416 ± 0.014 | 1.299 ± 0.014 | 1.199 ± 0.013 | 1.109 ± 0.013 | 1.029 ± 0.013
x1 = 0.95 | 796.66 ± 0.15 | 792.94 ± 0.15 | 789.21 ± 0.15 | 785.48 ± 0.15 | 781.73 ± 0.15 | 1.363 ± 0.014 | 1.254 ± 0.014 | 1.159 ± 0.013 | 1.073 ± 0.013 | 0.998 ± 0.012
x1 = 1 | 799.44 ± 0.15 | 795.7 ± 0.15 | 791.95 ± 0.15 | 788.19 ± 0.15 | 784.41 ± 0.15 | 1.296 ± 0.014 | 1.196 ± 0.013 | 1.107 ± 0.013 | 1.027 ± 0.013 | 0.958 ± 0.012
